The nature of data set [1]: Mass spectrometry of compound exposure in zebrafish embryos. The following applies: for detection of compound in embryos by MS: bathing, 100 nM or 1 μM, five days. The class given is in vivo. The procedure: FIG. 5: Successful delivery of small molecules into zebrafish embryos. (a) Experimental design and sample preparation for the mass spectrometry (MS) analysis of compound concentration. (b) Quantitative MS analysis results of compound exposure in embryos. The right-most two columns give the concentrations of each compound detected by MS in zebrafish, quantifying in vivo exposures resulting from egg water compound doses of 100 nM and 1 μM.
For this purpose, mass spectrometry (MS) was performed in embryos treated with each of compounds 2 and 8. Wild-type embryos were treated with 100 nM (the concentration used for the rescue experiments) or 1 μM (as a positive detection threshold given that the intracellular concentration of each compound is unknown at the beginning of the experiment). After five days of treatment, embryos were harvested and subjected to MS analysis (FIG. 5A).
WT EK embryos were transferred to a 12-well plate at the 8-cell stage and bathed in egg water containing 0.001% DMSO or 100 nM of each compound (n=30/condition). Embryos were incubated at 28° C.; egg water containing compound was refreshed every 24 hours until harvest. Compound exposure was assessed essentially as described (see, Berghmans, S. et al. J Pharmacol Toxicol Methods 58, 59-68 (2008)); larvae were anaesthetized on ice, washed once with fresh compound-free ice-cold egg water, washed once with ice-cold PBS, and then transferred to a microfuge tube and centrifuged briefly before removing all excess liquid. Samples were macerated using a plastic pestle and frozen at −20° C. prior to analysis. Mass spectrometry analysis was conducted at Covance Laboratories (Cary, N.C., USA). Briefly, the macerated larvae were diluted in 1 ml water/acetonitrile (50/50), sonicated for 3×10 s and vortexed. For all compounds, a control sample containing embryos exposed to 0.001% DMSO was analyzed as a control. Calibration curves were generated by spiking aliquots of control zebrafish homogenate (prepared as described above) with known amounts of compound 29 (N3521-4-2).

In data set [2] the test system is kmt2d CRISPR mosaic mutants (F0). Kind of data set: Jaw defects in kmt2d-CRISPR F0 mutants. It counts as in vivo, zebrafish. The note with it: kmt2d-CRISPR F0, 100 nM, 5 dpf; listed as dmDf. The text has this: Prior and current genetic zebrafish models of KS focused on the newly discovered rap1a/rap1b genes. However, from the perspective of clinical utility, dmDf should be efficacious in kmt2d mutants, since loss of function mutations of the human ortholog account for as much as 75% of KS (see, Ng, S. B. et al. Nat Genet 42, 790-3 (2010); Li, Y. et al. Hum Genet 130, 715-24 (2011); Lu, J., Mo, G., Ling, Y. & Ji, L. Mol Med Rep 14, 3641-5 (2016); Miyake, N. et al. Am J Med Genet A 161a, 2234-43 (2013)). Therefore, experiments supplemented the testing tools by creating a kmt2d CRISPR/Cas9 mutant. A guide RNA targeting exon 4 of kmt2d induced efficient (˜99%) Cas9-mediated genome editing (FIG. 8). […]
For convergence and extension (CE) phenotyping, embryos were scored as described (see, Leitch, C. C. et al. Nat Genet 40, 443-8 (2008)) at the 8-10 somite stage, and images were captured using an AZ100 microscope and NIS Elements software (Nikon). […] The distance between Meckel's (MK) and ceratohyal (CH) cartilages was measured on ventral bright field images with Image J (NIH). […] Fluorescence signal on embryo heads was imaged with the Nikon AZ100 microscope and DS-Qi1MC digital camera using […] Z-stacks to generate extended depth of focus images. Cell numbers were quantified using the ImageJ ICTN plugin (NIH). […]

Entries after “also recorded” stand apart in the source; their conditions may differ.

For the compound `CC[C@@H](CO)Nc1ncc(C)c(-c2c[nH]c(C(=O)N[C@H](CO)c3cccc(Cl)c3)c2)n1` [Compound 2, N-((S)-1-(3-chlorophenyl)-2-hydroxyethyl)-4-(2-(((S)-1-hydroxybutan-2-yl)amino)-5-methylpyrimidin-4-yl)-1H-pyrrole-2-carboxamide], the “detection of compound in embryos by MS” value in data set [1] was “Detectable concentrations”.

On to `CC(C)c1nc(-c2cccc(NS(=O)(=O)c3c(F)cccc3F)c2F)c(-c2ccnc(N)n2)s1` [Compound 8, desmethyl-Dabrafenib], for which, in data set [1] (100 nM dose), the “exposure of inhibitor in embryos (MS quantitation)” value was “sub-nanomolar”. Also, the concentration at 5 days in data set [1] (EK (wild-type), zebrafish, whole embryo/larva homogenate, other: bathing in egg water containing compound, egg water dose 100 nM, read-out: effective in vivo exposure (MS)) is 0.26 nM. Also, the “detection of compound in embryos by MS” value in data set [1] is “Detectable concentrations”. In addition, in data set [2], the “jaw defects (MK-CH distance)” value is on record as “ameliorates the jaw defects; also recorded: ameliorated significantly”.

These data come from US20210196714A1, “COMPOSITIONS AND METHODS FOR TREATING DISORDERS CHARACTERIZED WITH ABERRANT RAS/MAPK SIGNALING” (Duke University, priority 2018, published 2021).
